Experiment in all cases: 1H–[…] HSQC NMR chemical shift titration
What all share (format): binding

One experiment has as its target xylanase B2 (XlnB2) (Streptomyces lividans, UniProt P26515).
Experiment [1] has as its target T1, XlnB2-E87A (Streptomyces lividans, UniProt P26515, E128A).
Experiment [2] concerns the target T1, XlnB2-E87A. This is another data set of the same source.

Consider two compounds from PMC5374982 (Biochemistry, 2016).

One may read the Kd as a measure of binding affinity in units of concentration.

Like-named read-outs stand apart in the source and are kept apart here.

Consider `OC1OC[C@@H](O[C@@H]2OC[C@@H](O)[C@H](O)[C@H]2O)[C@H](O)[C@H]1O` (stereo partly drawn) [X2, xylobiose], for which the Kd was determined as 7.07 mM on xylanase B2 (XlnB2) and 8.71 mM on XlnB2-E87A [1].

Take `OC1OC[C@@H](O[C@@H]2OC[C@@H](O[C@@H]3OC[C@@H](O[C@@H]4OC[C@@H](O[C@@H]5OC[C@@H](O)[C@H](O)[C@H]5O)[C@H](O)[C@H]4O)[C@H](O)[C@H]3O)[C@H](O)[C@H]2O)[C@H](O)[C@H]1O` (stereo partly drawn) [X5, xylopentaose]: on XlnB2-E87A [2], the Kd was determined as 7.93 mM.
